Reference: patent US20220073532A1, “INHIBITORS OF CGAS ACTIVITY AS THERAPEUTIC AGENTS” (BELLBROOK LABS, LLC, priority 2019, published 2022)
“Also recorded” adds a separate entry of the source. Where two headings read alike, the source gives them in different places.

Assays:
[1] = tested on: IRF3-driven Luc expression in THP-1 Dual cells; assay: THP-1 Dual IRF3-Luc reporter assay; format: cell-based, human; details: for cGAS-dependent cellular activity: human monocyte cell line THP-1; for inhibition of IRF3-dependent Luc expression: THP-1 Dual cells, induced by DNA or cGAMP
Protocol: (§1) IFN induction in human monocyte cell lines: The human monocyte cell line THP-1 gives a robust cGAS/STING-dependent type I IFN response and has been used extensively for studies on the pathway. Typically, cells are stimulated by transfection with dsDNA and gene expression is assessed using an ELISA for IFNβ, a reporter gene assay, and/or cGAS/STING pathway markers such as STING phosphorylation. These assays were validated using the TBK1 inhibitor, BX-795, which acts downstream of cGAS/STING, as a probe; THP-1 Dual cells (Invivogen, San Diego) are used as the reporter cell line for routine compound testing (FIG. 5A). These assays were optimized, including equalizing responses with transfected DNA and cGAMP and comparing responses between undifferentiated cells and cells that have been differentiated to macrophages (which show little difference). […] Stimulation of THP-1 Dual cells with damage-associated molecular pattern molecules (DAMPs) that act through pattern recognition receptors other than cGAS provides another way to confirm the specificity of putative cGAS inhibitors.

[2] = tested on: IFNβ expression in THP-1 cells; assay: IFNβ ELISA in THP-1 cells; format: cell-based, human
Protocol: as §1

[3] = biological target: T1, cGAS (Homo sapiens, UniProt Q8N884); assay: cGAS enzymatic assay (FP/TR-FRET detection of cGAMP); format: biochemical; parameters: The cGAS assay was used to screen 100,000 compounds with full-length human cGAS; 6xHis; made in house
Protocol: Some exemplary compounds of the disclosure were tested for inhibition of cGAS (30 nM). The results are provided in Table 1 where “A” indicates an IC50 of less than 100 nM, “B” indicates an IC50 of greater than 100 nM and less than 500 nM, “C” indicates an IC50 of greater than 500 nM and less than 1 μM, “D” indicates an IC50 of greater than 1 μM and less than 10 μM, and “E” indicates an IC50 of greater than 10 μM.
A homogenous cGAS enzymatic assay was developed with fluorescence polarization (FP) and time-resolved Forster resonance energy transfer (TR-FRET) readouts (FIG. 2A-2D). The cGAS assay was used to screen 100,000 compounds with full-length human cGAS (FIG. 2E), resulting in the identification of the novel chemotype of the disclosure, two of which are further developed in a structure-driven hit-to-lead study (Table 3, below). The assay performance was robust, as indicated by respective Z and Z′ values of 0.59 and 0.63 in the screen; compounds with polarization values greater than three SDs from the mean were considered hits; a scatterplot from 10 plates (3,200 compounds) is shown in FIG. 2D.
Biochemical and biophysical analysis: Potency and MOA studies, including Mn^2+ sensitivity, are performed using the cGAS enzymatic assay. Dose response experiments are used to determine IC50 values under basal conditions (5 mM MgCl2, 100 μM ATP/GTP), and with the addition of physiological levels of Mn (0.2 mM) using human and mouse cGAS. Ligand optimization is driven by potency with the human enzyme; potency with mouse cGAS informs selection of an appropriate disease model for efficacy studies. Competition with ATP and GTP is assessed by comparing basal IC50 values to those in the presence of saturating ATP or GTP, and subsequently confirmed by measuring velocity vs. substrate at varying ATP or GTP levels. Inhibitor residence times (1/koff) are used as a key parameter for prioritizing compounds and driving SAR, because a longer residence time often results from an allosteric mechanism, and can also correlate with improved cellular activity. The cGAS enzymatic assay is used with the jump dilution method to measure residence times (inhibitor dissociation rates), as described for kinases using the very similar ADP assay. Biophysical methods, including SPR and TSA, are used as orthologous methods for residence time measurements and kd estimates.

[4] = biological target: T1, cGAS; assay: SPR / biophysical binding to cGAS; details: SPR; read-out: Kd determined with SPR
Text: Following confirmation of hits at three concentrations and removal of compounds with visually evident reactivity or metabolic liabilities, non-stoichiometric inhibitors, aggregators, DNA intercalators and redox-active compounds were triaged (FIG. 2E) using established assays. […] Initial SAR based on more than 100 commercially available analogs provided additional confidence that the compounds were bonafide inhibitors, and informed potential scaffold hops and toleration for modifications.
A highly efficient platform for preclinical drug discovery (FIG. 3) was assembled, providing for development of cGAS inhibitors, which is improved by the addition of a powerful computational modeling method and in vivo PK studies (FIG. 3). […]
Biochemical and biophysical analysis: Potency and MOA studies, including Mn^2+ sensitivity, are performed using the cGAS enzymatic assay. […] Competition with ATP and GTP is assessed by comparing basal IC50 values to those in the presence of saturating ATP or GTP, and subsequently confirmed by measuring velocity vs. substrate at varying ATP or GTP levels. […]

[5] = tested on: NFκB-driven SEAP expression in THP-1 Dual cells; assay: THP-1 Dual NFκB-SEAP reporter assay; format: cell-based, human
Protocol: as §1

[6] = tested on: THP1 cGAS KO cells; assay: Specificity test in THP-Dual cGAS knockout cells; format: cell-based, human; details: LPS-stimulated, cGAS KO
Text: FIG. 5 includes (A) a schematic showing the THP1 dual-cell reporter system: secreted luciferase reports on IRF3-driven transcription; secreted alkaline phosphatase reports on NFκB-driven transcription, both downstream of cGAS/STING. THP-Dual cGAS knockout cells are used to test for non-specific effects; (B) a plot of the dose response for inhibition of Luc expression by Compound 15; (C) a plot of the dose response for inhibition of Luc expression by the TBK1 inhibitor, BX-795; and (D) a plot of the dose response for inhibition of SEAP expression by Compound 15.
as §1

[7] = tested on: interferon-sensitive gene (ISG) expression in THP1-dual cells; assay: ISG mRNA expression by RT-PCR in THP1-dual cells; format: cell-based, human; details: 24 hours, normalized to β-actin
Protocol: FIG. 6A illustrates activity of IFNβ expression of the compounds of disclosure. FIG. 6B illustrates inhibition of reporter genes from cGAS/STING-driven promoters of compound 28 in THP1-dual cells. FIG. 6C illustrates the ISG mRNA expression of compound 28 in THP1-dual cells. Compound 28 in concentration of 200 μM was evaluated after 24 hours. The results were normalized to β-actin.

[8] = cGAS (30 nM), with Mn^2+, read-out: Inhibition cGAS + Mn^2+
[9] = cGAS (30 nM), read-out: Inhibition cGAS

T1 sequence (Q8N884 whole entry): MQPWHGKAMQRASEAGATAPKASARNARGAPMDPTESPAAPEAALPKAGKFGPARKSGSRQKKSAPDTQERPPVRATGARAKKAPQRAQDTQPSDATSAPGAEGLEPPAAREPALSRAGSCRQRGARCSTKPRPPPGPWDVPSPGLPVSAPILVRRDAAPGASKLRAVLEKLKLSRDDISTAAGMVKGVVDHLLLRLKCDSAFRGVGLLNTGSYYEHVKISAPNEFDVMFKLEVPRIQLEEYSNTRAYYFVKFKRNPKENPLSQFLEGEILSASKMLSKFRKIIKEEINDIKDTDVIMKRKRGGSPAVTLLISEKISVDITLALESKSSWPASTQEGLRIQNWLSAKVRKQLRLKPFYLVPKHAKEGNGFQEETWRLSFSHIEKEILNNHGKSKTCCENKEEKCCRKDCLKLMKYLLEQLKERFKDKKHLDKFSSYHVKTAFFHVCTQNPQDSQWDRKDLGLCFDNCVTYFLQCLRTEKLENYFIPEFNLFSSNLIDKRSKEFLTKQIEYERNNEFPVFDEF

`Cc1ccc(C(=O)Nc2ccc(S(=O)(=O)O)c3cc(S(=O)(=O)O)cc(S(=O)(=O)O)c23)cc1NC(=O)c1cccc(NC(=O)Nc2cccc(C(=O)Nc3cc(C(=O)Nc4ccc(S(=O)(=O)O)c5cc(S(=O)(=O)O)cc(S(=O)(=O)O)c45)ccc3C)c2)c1` [suramin, reference compound] was tested. Which cGAS-dependent cellular activity [1] did it give?
Its cGAS-dependent cellular activity is “not observed”.

How did the cGAS-dependent cellular activity [1] turn out when `CCN(CCO)CCCC(C)Nc1ccnc2cc(Cl)ccc12` (stereo not shown) [hydroxychloroquine, reference compound] was run?
The cGAS-dependent cellular activity was “not observed”.

With `Cc1nc(N2C[C@@H](Nc3n[nH]cc3C3CC3)C[C@H]2C(=O)O)c2oc3ccccc3c2n1` [Compound 53, (2S,4S)-4-((4-cyclopropyl-1H-pyrazol-3-yl)amino)-1-(2-methylbenzofuro[3,2-d]pyrimidin-4-yl)pyrrolidine-2-carboxylic acid] as the compound, how does the “inhibition of IRF3-dependent Luc expression” value [1] read?
The value was “reproducible inhibition”.

And the “inhibition of IFNβ expression” value [2]?
Its value is “inhibit IFNβ expression”.

And the IC50 [3, 8]?
Its IC50 is 1 to 10 µM.

What about the IC50 [3, 9] of the same compound?
Its IC50 is 0.1 to 0.5 µM.

With `CCc1nc(N2CCC[C@H]2C(=O)O)c2oc3ccccc3c2n1` [Compound 1, (2-ethylbenzofuro[3,2-d]pyrimidin-4-yl)-L-proline] as the compound, how does the Kd [4] read?
The Kd was 2.4 µM.

What about the IC50 ([3]; 5 mM Mg^2+, 0.2 mM Mn^2+, read-out: IC50 (5 mM Mg^2+, 0.2 mM Mn^2+)) of the same compound?
Its IC50 is 19 µM.

What about the IC50 ([3]; 5 mM Mg^2+, read-out: IC50 (5 mM Mg^2+)) of the same compound?
The IC50 was 2.6 µM.

What about the IC50 [3, 8] of the same compound?
The IC50 was greater than 10 µM.

And the IC50 [3, 9]?
Its IC50 is 1 to 10 µM.

And the IC50 ([3]; read-out: IC50 in the cGAS enzymatic assay)?
The IC50 was 1.26 µM.

Which cGAS-dependent cellular activity [1] does the source give for `CCN(CC)CCCC(C)Nc1c2ccc(Cl)cc2nc2ccc(OC)cc12` (stereo not shown) [quinacrine, reference compound] here?
The cGAS-dependent cellular activity was “not observed”.

With `O=C(NCCCNc1nc(Nc2cccc(NC(=O)N3CCCC3)c2)ncc1I)c1cccs1` [BX-795, reference compound] as the compound, how does the “inhibition of IRF3-dependent Luc expression” value [1] read?
The value was “dose-dependent inhibition”.

What about the “inhibition of NFκB-driven SEAP expression” value ([5]; THP-1 Dual cells) of the same compound?
Its value is “did not inhibit”.

And the “effect on IRF3-driven Luc expression in THP1 cGAS KO cells stimulated with LPS” value [6]?
The value was “inhibited with an expected potency”.

What does the source list for `Cc1nc(N2C[C@@H](CC(=O)Nc3ccncc3)C[C@H]2C(=O)O)c2oc3ccccc3c2n1` [Compound 28, (2S,4R)-1-(2-methylbenzofuro[3,2-d]pyrimidin-4-yl)-4-(2-oxo-2-(pyridin-4-ylamino)ethyl)pyrrolidine-2-carboxylic acid]?
IC50 ([1]; Homo sapiens, THP1-dual cells, read-out: Cellular IRF3-Luc IC50): 20 µM; IC50 ([5]; Homo sapiens, THP1-dual cells, read-out: Cellular NFκB-SEAP IC50): 9 µM; inhibition of IFNβ expression [2]: reproducible inhibition; also recorded: inhibit IFNβ expression; specificity: DNA- versus cGAMP-stimulated cells [2]: specific for DNA-stimulated cells; also recorded: more potent inhibition of cells stimulated with DNA than those stimulated with cGAMP; IC50 ([2]; Homo sapiens, read-out: Cellular IFNβ ELISA IC50): 13 µM; ISG expression (fold decrease @ 200 μM) [7]: 2-3×; IC50 ([3]; 100 μM ATP/GTP, read-out: Enzymatic FP Std (100 μM ATP/GTP) IC50): 0.356 µM; IC50 ([3]; 1 mM ATP/GTP, read-out: Enzymatic FP Physiological (1 mM ATP/GTP) IC50): 3.25 µM; IC50 [3, 9]: 0.1 to 0.5 µM

`Cc1nc(N2C[C@@H](Nc3cccnc3)C[C@H]2C(=O)O)c2oc3ccccc3c2n1` [Compound 39, (2S,4S)-1-(2-methylbenzofuro[3,2-d]pyrimidin-4-yl)-4-(pyridin-3-ylamino)pyrrolidine-2-carboxylic acid] was tested. Which “Inhibition cGAS” value ([3]; cGAS (30 nM)) did it give?
The value was “B, D”.

How did the IC50 [3, 8] turn out when `Cc1nc(N2C[C@@H](N(C)c3n[nH]cc3C)C[C@H]2C(=O)O)c2oc3ccccc3c2n1` [Compound 64, (2S,4S)-4-(methyl(4-methyl-1H-pyrazol-3-yl)amino)-1-(2-methylbenzofuro[3,2-d]pyrimidin-4-yl)pyrrolidine-2-carboxylic acid] was run?
Its IC50 is 1 to 10 µM.

And the IC50 [3, 9]?
The IC50 was 1 to 10 µM.
